This note sets out measurements from patent US20060223849A1, “Benzazole derivatives, compositions, and methods of use as beta-secretase inhibitors” (priority 2005, published 2006).

This assay relates to HEK293 cells stably expressing wildtype human APP695 protein (HEK-APPwt cells). Nature of the assay: Aβ cell based assay (Aβ1-40 secretion, ELISA). The settings on record: 1 hr room temperature then five-hour incubation at 37° C., Aβ1-40 ELISA, DAPT as 100% inhibition reference, read-out: EC50, reduction of Aβ1-40 secretion in the cell based assay. As to the method:
Aβ Cell Based Assay Procedure
In the following assay, the proteolytic activity of BACE in cells exposed to varying concentrations of a compound of interest is measured by observing the amount of Aβ1-40 secreted from HEK293 cells (Human Embryonic Kidney epithelial cell line) stably expressing either wildtype human APP695 protein (HEK-APPwt cells).
HEK-APPwt cells were grown in high glucose DMEM (Dulbecco's Modified Eagles Medium) with 4500 mg glucose/L,L-glutamine, NaHCO3, pyrdoxin HCl, 10 mM HEPES (4-(2-hydroxyethyl)-1-piperazineethanesulfonic acid) (pH 7.4), 0.1 mM NEAA (Non-essential Amino Acids) (GIBCO Cat#11140-050), 10% fetal bovine serum and 250 μg/ml hygromycin in T-225 flasks at 37° C. with CO2 and humidity control.
Test compounds were initially prepared in DMSO and diluted with DMEM media containing 2% FBS (Fetal bovine serum) and 0.05% Tween20. Ten standard compound solutions were prepared having a range of concentrations. The standard compound solutions were used to determine the EC50 of the test compound. The range of concentrations chosen may depend on the compound's predicted potency.
To prepare the cells for the assay, a flask containing HEK-APPwt cells were trypsinized briefly (1 mL trypsin), and once the cells detached, 4 mL of 10% FBS-DMEM was added to the flask. The detached cells were centrifuged at 900 rpm for 5 min to form a pellet.
The HEK-APPwt cell pellet was re-suspended with 10 mL DMEM media containing 2% FBS. 80 μL of the cell suspension was added to each well of a 96-well cell culture plate to give 100,000 cells/well. 10 μL of a standard compound solution was added to each well of the 96-well cell culture plate followed by 10 μL of Alamar blue solution. The cells were incubated at room temperature for 1 hr, followed by a five-hour incubation in the CO2 incubator at 37° C.
At the end of the incubation, the plates were removed from incubator, and the supernatant was collected. Aβ1-40 concentration in the medium was measured by using a commercial Aβ1-40 ELISA kit (IBL, Japan). Briefly, the ELISA plates were coated with anti-human Aβ35-40 mouse IgG monoclonal antibody. A horseradish peroxidase enzyme conjugated anti-human Aβ11-28 mouse IgG monoclone antibody was used for detection. The cell culture supernatant was diluted 1:4 fold with (EIA buffer+Protease inhibitor (buffer containing Protease Inhibitor (1 mL PI/30 mL buffer). A 100 μL aliquot of the diluted supernatant was added to each well of the ELISA plate and incubated for 6 hrs at 4° C. The ELISA plate was washed 8 times with phosphate buffered saline (PBS) containing 0.05% Tween 20.
A 100 μL of detection antibody was then added and incubated for 1 hour at 4° C. The plate was washed 8 times with PBS buffer containing 0.05% Tween 20 followed by addition of 100 μL of the substrate with the chromogen tetramethyl benzidine (TMB). The plate was incubated in the dark at room temperature for about 30 min and a stop solution (1N H2SO4) was added.
The intensity of the color developed was measured at 450 nm. The optical density at 450 nm (OD450) is proportional to the concentration of human Aβ1-40 secreted by the cell. As a reference, N—[N-(3,5-difluorophenacetyl-L-alanyl)]-S-phenylglycine t-butyl ester (DAPT, a γ-secretase inhibitor) was used to indicate 100% inhibition of BACE activity. Thus, the assay measures the ability of a compound of interest to reduce Aβ1-40 secretion. Compound potency was reported as the EC50 by calculating the percent inhibition at all concentration levels and the data were fit with non-linear curve fitting algorithm using in GraphPad Prism.

Molecules are shown by their SMILES. Bounds are passed on as bounds.

Consider `O=C(Nc1nc2cccc(C(=O)Nc3ncc[nH]3)c2[nH]1)c1cc2ccccc2cn1` [Example 58, isoquinoline-3-carboxylic acid [4-(1H-imidazol-2-ylcarbamoyl)-1H-benzoimidazol-2-yl]-amide], for which the EC50 was no more than 2000 nM.
Next, `O=C(Nc1ncc[nH]1)c1ccc2[nH]c(NC(=O)c3cc4ccccc4cn3)nc2c1` [Example 140, isoquinoline-3-carboxylic acid [5-(1H-imidazol-2-ylcarbamoyl)-1H-benzoimidazol-2-yl]-amide]: no more than 2000 nM; `CS(=O)(=O)c1ccc(CNC(=O)c2cccc3[nH]c(NC(=O)c4cc5ccccc5cn4)nc23)cc1` [Example 155, isoquinoline-3-carboxylic acid [4-(4-methanesulfonyl-benzylcarbamoyl)-1H-benzoimidazol-2-yl]-amide]: no more than 2000 nM.
Take `COc1ccc(CNC(=O)c2cccc3nc(NC(=O)c4cc5ccccc5cn4)[nH]c23)cc1` [Example 165, Isoquinoline-3-carboxylic acid [7-(4-methoxy-benzylcarbamoyl)-1H-benzoimidazol-2-yl]-amide]: the EC50 was no more than 2000 nM.
Then `COc1ccc(CCNC(=O)c2cccc3nc(NC(=O)c4cc5ccccc5cn4)[nH]c23)cc1` [Example 176, Isoquinoline-3-carboxylic acid {7-[2-(4-methoxy-phenyl)-ethylcarbamoyl]-1H-benzoimidazol-2-yl}-amide], with no more than 2000 nM; and `Cc1nc(NC(=O)c2cccc3[nH]c(NC(=O)c4cc5ccccc5cn4)nc23)[nH]c1C` [Example 193, Isoquinoline-3-carboxylic acid [4-(4,5-dimethyl-1H-imidazol-2-ylcarbamoyl)-1H-benzoimidazol-2-yl]-amide], with no more than 2000 nM.
In the case of `O=C(Nc1nc2c(C(=O)Nc3nc4c(s3)CNCC4)cccc2[nH]1)c1cc2ccccc2cn1` [Example 198, isoquinoline-3-carboxylic acid [7-(4,5,6,7-tetrahydro-thiazolo[5,4-c]pyridin-2-ylcarbamoyl)-1H-benzoimidazol-2-yl]-amide], the EC50 was no more than 2000 nM.
With `CN1CCc2nc(NC(=O)c3cccc4[nH]c(NC(=O)c5cc6ccccc6cn5)nc34)sc2C1` [Example 212, Isoquinoline-3-carboxylic acid [4-(5-methyl-4,5,6,7-tetrahydro-thiazolo[5,4-c]pyridin-2-ylcarbamoyl)-1H-benzoimidazol-2-yl]-amide], the half-maximal effective concentration (EC50) is no more than 2000 nM.
`Cn1ccnc1CN1CCc2nc(NC(=O)c3cccc4[nH]c(NC(=O)c5cc6ccccc6cn5)nc34)sc2C1` [Example 247, Isoquinoline-3-carboxylic acid {4-[5-(1-methyl-1H-imidazol-2-ylmethyl)-4,5,6,7-tetrahydro-thiazolo[5,4-c]pyridin-2-ylcarbamoyl]-1H-benzoimidazol-2-yl}-amide]: the EC50 was no more than 2000 nM.
Then `COc1cc2ccnc(C(=O)Nc3nc4c(C(=O)Nc5ncc[nH]5)cccc4[nH]3)c2cc1OC` [Example 289, 6,7-dimethoxy-isoquinoline-1-carboxylic acid [4-(1H-imidazol-2-ylcarbamoyl)-1H-benzoimidazol-2-yl]-amide], with no more than 2000 nM; and `COc1ccc2cnc(C(=O)Nc3nc4c(C(=O)Nc5ncc[nH]5)cccc4[nH]3)cc2c1` [Example 294, 6-Methoxy-isoquinoline-3-carboxylic acid [4-(1H-imidazol-2-ylcarbamoyl)-1H-benzoimidazol-2-yl]-amide], with no more than 2000 nM; and `COc1cccc2cc(C(=O)Nc3nc4c(C(=O)Nc5ncc[nH]5)cccc4[nH]3)ncc12` [Example 295, 8-methoxy-isoquinoline-3-carboxylic acid [4-(1H-imidazol-2-ylcarbamoyl)-1H-benzoimidazol-2-yl]-amide], with no more than 2000 nM.
Next, `COc1ccc2cc(C(=O)Nc3nc4c(C(=O)Nc5ncc[nH]5)cccc4[nH]3)ncc2c1` [Example 296, 7-methoxy-isoquinoline-3-carboxylic acid [4-(1H-imidazol-2-ylcarbamoyl)-1H-benzoimidazol-2-yl]-amide]: no more than 2000 nM.
`Cc1nc(C(=O)Nc2nc3c(C(=O)Nc4ncc[nH]4)cccc3[nH]2)cc2ccccc12` [Example 300, 1-methyl-isoquinoline-3-carboxylic acid [4-(1H-imidazol-2-ylcarbamoyl)-1H-benzoimidazol-2-yl]-amide]: the EC50 was no more than 2000 nM.
Next, `O=C(Nc1nc2c(C(=O)Nc3ncc[nH]3)cccc2[nH]1)c1nccc2ccccc12` [Example 311, Ar = Isoquinoline-1-yl]: no more than 2000 nM; `COc1cc2cnc(C(=O)Nc3nc4c(C(=O)Nc5ncc[nH]5)cccc4[nH]3)cc2cc1OC` [Example 312, Ar = 6,7-Dimethoxy-isoquinoline-3-yl]: no more than 2000 nM; `O=C(Nc1nc2c(C(=O)Nc3ncc[nH]3)cccc2[nH]1)c1cc2cc3c(cc2cn1)OCCO3` [Example 318, Ar = 2,3-Dihydro-[1,4]dioxino[2,3-g]isoquinoline-8-yl]: no more than 2000 nM.
Next, `N#Cc1cccc(-c2cccc(C(=O)Nc3nc4c(C(=O)Nc5ncc[nH]5)cccc4[nH]3)n2)c1` [Example 343, 2-{[6-(3-cyano-phenyl)-pyridine-2-carbonyl]-amino}-1H-benzoimidazole-4-carboxylic acid (1H-imidazol-2-yl)-amide]: no more than 2000 nM; `O=C(Nc1nc2c(C(=O)Nc3ncc[nH]3)cccc2[nH]1)c1cncc(-c2cccc(F)c2)c1` [Example 351, Ar = 5-(3-Fluoro-phenyl)-pyridine-3-yl]: no more than 2000 nM.
Next, `O=C(Nc1nc2c(C(=O)Nc3ncc[nH]3)cccc2[nH]1)c1cccc(-c2ccco2)n1` [Example 355, Ar = 6-(Furan-2-yl)-pyridine-2-yl]: no more than 2000 nM; `O=C(Nc1nc2c(C(=O)Nc3ncc[nH]3)cccc2[nH]1)c1cncc(C#Cc2ccccc2)c1` [Example 414, 2-[(5-phenylethynyl-pyridine-3-carbonyl)-amino]-1H-benzoimidazole-4-carboxylic acid (1H-imidazol-2-yl)-amide]: no more than 2000 nM; `O=C(Nc1nc2c(C(=O)Nc3ncc[nH]3)cccc2[nH]1)c1cccc(C#Cc2ccccc2)n1` [Example 416, 2-[(6-phenylethynyl-pyridine-2-carbonyl)-amino]-1H-benzoimidazole-4-carboxylic acid (1H-imidazol-2-yl)-amide]: no more than 2000 nM.
Consider `CS(=O)(=O)c1cccc(C#Cc2cccc(C(=O)Nc3nc4c(C(=O)Nc5ncc[nH]5)cccc4[nH]3)n2)c1` [Example 417, 2-{[6-(3-methanesulfonyl-phenylethynyl)-pyridine-2-carbonyl]-amino}-1H-benzoimidazole-4-carboxylic acid (1H-imidazol-2-yl)-amide], for which the EC50 is no more than 2000 nM.
Next, `CC(C)(C)C#Cc1cccc(C(=O)Nc2nc3c(C(=O)Nc4ncc[nH]4)cccc3[nH]2)n1` [Example 428, Ar = 6-(3,3-Dimethyl-but-1-ynyl)-pyridine-2-yl]: no more than 2000 nM; `O=C(Nc1nc2c(C(=O)Nc3ncc[nH]3)cccc2[nH]1)c1cccc(C#Cc2cccnc2)n1` [Example 434, Ar = 6-(Pyridin-3-ylethynyl)-pyridine-2-yl]: no more than 2000 nM.
Then `O=C(Nc1nc2c(C(=O)Nc3ncc[nH]3)cccc2[nH]1)c1cccc(C#CC2CC2)n1` [Example 439, Ar = 6-(Cyclopropylethynyl)-pyridine-2-yl], with no more than 2000 nM; and `CS(=O)(=O)c1ccc(CNC(=O)c2cc(-c3ccncc3)cc3[nH]c(NC(=O)c4cc5ccccc5cn4)nc23)cc1` [Example 458, isoquinoline-3-carboxylic acid [4-(4-methanesulfonyl-benzylcarbamoyl)-6-pyridin-4-yl-1H-benzoimidazol-2-yl]-amide], with no more than 2000 nM.

The EC50 is the concentration needed to bring the measured effect to its halfway point.
